The subject of test [1] is T47D. Kind of test: Induction of apoptosis in human T47D cells assessed as caspase activation after 48 hrs by HTS assay. The class given is functional, cell-based.
For test [2], the system named is HCT-116. Kind of test: Induction of apoptosis in human HCT116 cells assessed as caspase activation after 48 hrs by HTS assay. The class given is functional, cell-based. The note with it: HCT-116, 48 h.
In test [3] the test system is SNU-398. Kind of test: Induction of apoptosis in human SNU398 cells assessed as caspase activation after 48 hrs by HTS assay. The class given is functional, cell-based. The note with it: SNU-398, 48 h.
Test [4] relates to T47D. Kind of test: Growth inhibition of human T47D cells after 48 hrs. The class given is functional.
In test [5] the test system is HCT-116. Kind of test: Growth inhibition of human HCT116 cells after 48 hrs. The class given is functional. The note with it: HCT-116, 48 h.
The test system of test [6] is SNU-398. Kind of test: Growth inhibition of human SNU398 cells after 48 hrs. The note with it: SNU-398, 48 h. The class given is functional.
For test [7], the system named is SNU-398. Kind of test: Ratio of drug to vinblastin for induction of apoptosis in human SNU398 cells assessed as caspase activation after 48 hrs by HTS assay. The class given is functional.
Test [8] has as its system T47D. Kind of test: Ratio of drug to vinblastin for induction of apoptosis in human T47D cells assessed as caspase activation after 48 hrs by HTS assay. The class given is functional.
Test [9] deals with T47D. Kind of test: Induction of apoptosis in human T47D cells assessed as accumulation at sub G1 phase at 2 uM after 48 hrs by propidium iodide-based flow cytometry. The class given is functional.
The subject of test [10] is SNU-398. Kind of test: Ratio of drug to paclitaxel for induction of apoptosis in human SNU398 cells assessed as caspase activation after 48 hrs by HTS assay. The class given is functional.
Test [11] in a line: Inhibition of tubulin polymerization at 0.5 uM.
Test [12] deals with T47D. Kind of test: Induction of apoptosis in human T47D cells assessed as accumulation at G2M phase at 2 uM after 48 hrs by propidium iodide-based flow cytometry. The class given is functional.
Test [13] is described as follows: Inhibition of tubulin polymerization at 2 uM.
Test [14] is described as follows: Inhibition of tubulin polymerization at 3 uM.
The subject of test [15] is T47D. Kind of test: Induction of apoptosis in human T47D cells assessed as accumulation at sub G1 phase at 2 uM after 24 hrs by propidium iodide-based flow cytometry. The class given is functional. On the technique in general: In flow cytometry, cells or beads pass a laser one at a time.
Test [16] relates to T47D. Kind of test: Induction of apoptosis in human T47D cells assessed as accumulation at S phase at 2 uM after 24 hrs by propidium iodide-based flow cytometry. The class given is functional.
Test [17] deals with T47D. Kind of test: Ratio of drug to paclitaxel for induction of apoptosis in human T47D cells assessed as caspase activation after 48 hrs by HTS assay. The class given is functional.
Test [18] deals with T47D. Kind of test: Induction of apoptosis in human T47D cells assessed as accumulation at G2M phase at 2 uM after 24 hrs by propidium iodide-based flow cytometry. The class given is functional.
Test [19] deals with HCT-116. Kind of test: Ratio of drug to vinblastin for induction of apoptosis in human HCT116 cells assessed as caspase activation after 48 hrs by HTS assay. The class given is functional.
The test system of test [20] is HCT-116. Kind of test: Ratio of drug to paclitaxel for induction of apoptosis in human HCT116 cells assessed as caspase activation after 48 hrs by HTS assay. The class given is functional.
In test [21] the test system is T47D. Kind of test: Induction of apoptosis in human T47D cells assessed as accumulation at G1 phase at 2 uM after 48 hrs by propidium iodide-based flow cytometry. The class given is functional.
Test [22] has as its system T47D. Kind of test: Induction of apoptosis in human T47D cells assessed as accumulation at S phase at 2 uM after 48 hrs by propidium iodide-based flow cytometry. The class given is functional.
The test system of test [23] is T47D. Kind of test: Induction of apoptosis in human T47D cells assessed as accumulation at G1 phase at 2 uM after 24 hrs by propidium iodide-based flow cytometry. The class given is functional.

Active and inactive are the calls of the source. No cut-off for these calls is given here.

What is called EC50 is the midpoint of the concentration-response curve. In general, GI50 refers to the concentration at which growth is held to half of that of the control. A higher GI50 goes with lower sensitivity of the cells. A word on the inhibition: it is the percentage by which the read-out fell short of the control.

On to `O=C(Nc1ccccc1-n1cccn1)c1cccc2c1oc1ccccc12`, for which the EC50 in test [1], in [2] and in [3] was above 10000 nM throughout.
Consider `O=C(Nc1ccccc1-n1cccn1)c1cccc2c1[nH]c1ccccc12`, for which the EC50 in test [1], in test [2] and in test [3] was above 10000 nM in each case.
Regarding `O=C(Nc1ccccc1-n1cccn1)c1cccc2c1S(=O)(=O)c1ccccc1-2`, the results for the concentration for a half-maximal effect (EC50) in test [1], in [2] and in [3] were above 10000 nM, above 10000 nM and 480 nM, respectively.
In the case of `O=C(Nc1ccccc1-n1cccn1)c1cccc2c3ccccc3[s+]([O-])c12` (configuration not stated), the EC50 in [1], in [2] and in test [3] was above 10000 nM each time.
As for `[N-]=[N+]=Nc1ccc2c(c1)C(=O)c1c(C(=O)Nc3ccccc3-n3cccn3)cccc1-2`, the results for the EC50 in test [1], in test [2] and in test [3] were 470 nM, 290 nM and 150 nM, respectively.
On the same counts, the results for `O=C(Nc1ccccc1-n1cccn1)c1ccccc1C(=O)c1ccccc1` are above 10000 nM, above 10000 nM and above 10000 nM.
For `O=C(Nc1ccccc1-n1cccn1)c1cccc2c1Cc1ccccc1-2` the same measures were 3200 nM, 6200 nM and 6900 nM.
For `Cc1ccc(C)c(NC(=O)c2cccc3c2Cc2ccccc2-3)c1` the same measures were 2400 nM, above 10000 nM and above 10000 nM.
For the molecule `Cc1ccc(NC(=O)c2cccc3c2Cc2ccccc2-3)c(C)c1`, the EC50 in test [1], in test [2] and in test [3] was above 10000 nM each time.
For the molecule `O=C(Nc1ccccc1-n1cccn1)c1cccc2c1sc1ccccc12`, the EC50 in [1] was 2100 nM; in test [2], 2200 nM; in [3], 1500 nM.
Consider `O=C(Nc1ccccc1-n1cccn1)c1cccc2c1C(=O)c1ccccc1-2`, for which the figures for the GI50 in test [4], in test [5] and in test [6] were 160 nM, 1100 nM and 780 nM, respectively.
Consider `Cc1ccccc1NC(=O)c1cccc2c1Cc1ccccc1-2`, for which the 50% effective concentration (EC50) in [1] was 1700 nM; in test [2], above 10000 nM; in [3], above 10000 nM.
In the case of `Cc1ccccc1NC(=O)c1cccc2c1C(O)c1ccccc1-2` (configuration not stated), the results for the concentration giving a half-maximal response (EC50) in [1], in test [2] and in [3] were 3000 nM, above 10000 nM and above 10000 nM, respectively.
For `CC[C@]1(O)C[C@@H]2CN(CCc3c([nH]c4ccccc34)[C@@](C(=O)OC)(c3cc4c(cc3OC)N(C)[C@H]3[C@@](O)(C(=O)OC)[C@H](OC(C)=O)[C@]5(CC)C=CCN6CC[C@]43[C@@H]65)C2)C1` [VINBLASTINE], the figures for the 50% growth inhibitory concentration (GI50) in test [4], in [5] and in [6] were 7 nM, 10 nM and 5 nM, respectively.
On to `Nc1ccc2c(c1)C(=O)c1c(C(=O)Nc3ccccc3-n3cccn3)cccc1-2`, for which the Ratio in test [7], in [8], in test [10], in test [17], in [19] and in test [20] was below 10 each time. The 50% growth inhibitory concentration (GI50) in [4] came to 150 nM; in [5] it was 510 nM; in [6] it was 84 nM. Besides, the concentration for a half-maximal effect (EC50) in test [1] worked out at 970 nM; in [2], 370 nM; in [3], 150 nM. The Activity in test [9] worked out at 50%; in [12], 24%; in test [15], 12%; in test [16], 14%; in [18], 60%; in test [21] it was 10%. Further, the Activity in test [22] worked out at 10%; in [23] it was 11%. In test [11], the inhibition entry was “Active”. For the same molecule, the inhibition in test [13] and in test [14] was 50% each time.
On to `O=C(Nc1ccccc1-n1cccn1)c1cccc2c1C(=O)c1cc([N+](=O)[O-])ccc1-2`, for which the Ratio in test [7], in [8], in test [10], in test [17], in test [19] and in test [20] was below 10 throughout. The GI50 in test [4] was 110 nM; in [5], 420 nM; in test [6], 72 nM. In addition, the values for the EC50 in test [1], in [2] and in test [3] were 290 nM, 220 nM and 150 nM, respectively. Besides, the inhibition result in test [11] is “Active”. Besides, the inhibition in test [13] and in [14] was 50% each time.
Turning to `CC(=O)O[C@H]1C(=O)[C@@]2(C)[C@H]([C@H](OC(=O)c3ccccc3)[C@]3(O)C[C@H](OC(=O)[C@H](O)[C@@H](NC(=O)c4ccccc4)c4ccccc4)C(C)=C1C3(C)C)[C@]1(OC(C)=O)CO[C@@H]1C[C@@H]2O` [PACLITAXEL], the concentration for 50% growth inhibition (GI50) was 26 nM in [4], 60 nM in test [5] and 61 nM in [6].
As to `O=C(Nc1ccccc1-n1cc(Br)cn1)c1cccc2c1C(=O)c1cc([N+](=O)[O-])ccc1-2`, the EC50 in test [1] stood at 1300 nM; in test [2] it was 1500 nM; in [3], 1400 nM.
On the same counts, the results for `Cc1cccc(NC(=O)c2cccc3c2Cc2ccccc2-3)c1C` are above 10000 nM, above 10000 nM and above 10000 nM.
On the same counts, the results for `O=C(Nc1ccccc1-n1cccn1)c1cccc2c1OCC2` are above 10000 nM, above 10000 nM and above 10000 nM.

The record behind these values is ChEMBL document CHEMBL1159042, “Discovery of N-aryl-9-oxo-9H-fluorene-1-carboxamides as a new series of apoptosis inducers using a cell- and caspase-based high-throughput screening assay. 2. Structure-activity relationships of the 9-oxo-9H-fluorene ring” (Bioorg Med Chem Lett, 2010).
